Reference: patent US10844044B2 (Vanderbilt University, priority 2018, dated 2020)
Like-named read-outs stand apart in the source and are kept apart here.

Key:
[1] = tested on: MV4:11 human cancer cell lines; test: Anti-proliferative activity, CellTiter-Glo viability assay, 7 day protocol; type: cell-based; conditions: Homo sapiens, MV4:11 cells, 7 day incubation, read-out: GI50 on cellular proliferation of MV4:11 human cancer cell lines
Method in brief: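 MV4:11 cells seeded at 3600 cells/ml and exposed to compounds for 7 days, 0.1% DMSO final. Viability measured by CellTiter-Glo luminescence. GI50 from three biological replicates, each in technical triplicate, given as mean ± S.E.M.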

[2] = biological target: WDR5 (Homo sapiens (Human), UniProt P61964); test: TR-FRET binding assay (displacement of 10mer-Thr-FAM probe from WDR5)
[3] = read-out: Ki for Inhibition of WDR5 by TR-FRET assay, TR-FRET, 10mer-Thr-FAM probe, WDR5-His tag 2 nM, pH 7.0
[4] = read-out: Ki for Inhibition of WDR5 by TR-FRET assay

Compound | GI50 ([1]; MV4-11, 168 h) [nM] | Ki [2, 3] [nM] | Ki [2] [nM] | Ki [2, 4] [nM] | GI50 ([1]; 168 h) [nM]
Cc1ncccc1-c1cc(Cn2ccn(C)c2=N)cc(C(=O)NC(C2CC2)C2CC2)c1 [Example 39, N-(Dicyclopropylmethyl)-3-((2-imino-3-methyl-2,3-dihydro-1H-imidazol-1-yl)methyl)-5-(2-methylpyridin-3-yl)benzamide] | 30000 | 17 |  |  | 
Cc1cc([C@@H](NC(=O)c2cc(Cn3ccn(C)c3=N)cc(-c3ccc(F)cc3C(F)(F)F)c2)C2CC2)ccc1F [Example 188, (S)—N-(Cyclopropyl(4-fluoro-3-methylphenyl)methyl)-4′-fluoro-5-((2-imino-3-methyl-2,3-dihydro-1H-imidazol-1-yl)methyl)-2′-(trifluoromethyl)-[1,1′-biphenyl]3-carboxamide] | < 100 |  | < 0.1 |  | 
CCOc1c(C(=O)N[C@@H](C)c2ccc(F)c(C)c2)cc(CN2CCOC2=N)cc1-c1cn(C)nc1C(F)(F)F [Example 302, (S)-2-Ethoxy-N-(1-(4-fluoro-3-methylphenyl)ethyl)-5-((2-iminooxazolidin-3-yl)methyl)-3-(1-methyl-3-(trifluoromethyl)-1H-pyrazol-4-yl)benzamide] | < 100 | < 0.1 |  |  | 
Cc1cc([C@@H](NC(=O)c2cc(CN3CCN(C)C3=N)cc(-c3cn(C(C)C)nc3C(F)(F)F)c2)C2CC2)ccc1F [Example 215, (S)—N-(Cyclopropyl(4-fluoro-3-methylphenyl)methyl)-3-((2-imino-3-methylimidazolidin-1-yl)methyl)-5-(1-isopropyl-3-(trifluoromethyl)-1H-pyrazol-4-yl)benzamide] | < 100 |  | < 0.1 |  | 
Cc1cc([C@@H](NC(=O)c2cc(Cn3ccn(C)c3=N)cc(-c3ccc(F)cc3C#N)c2)C2CC2)ccc1F [Example 185, (S)-2′-Cyano-N-(cyclopropyl(4-fluoro-3-methylphenyl)methyl)-4′-fluoro-5-((2-imino-3-methyl-2,3-dihydro-1H-imidazol-1-yl)methyl)-[1,1′-biphenyl]-3-carboxamide] | 610 | < 0.1 |  |  | 
Cc1cc([C@@H](NC(=O)c2cc(Cn3ccn(C)c3=N)cc(-c3ccc(F)cc3Cl)c2)C2CC2)ncc1F [Example 174, (S)-2′-Chloro-N-(cyclopropyl(5-fluoro-4-methylpyridin-2-yl)methyl)-4′-fluoro-5-((2-imino-3-methyl-2,3-dihydro-1H-imidazol-1-yl)methyl)-[1,1′-biphenyl]-3-carboxamide] | < 100 | < 0.1 |  |  | 
Cc1cc([C@@H](NC(=O)c2cc(Cn3ccn(C4CC4)c3=N)cc(-c3ccc(F)cc3OC(F)F)c2)C2CC2)ccc1F [Example 156, (S)—N-(cyclopropyl(4-fluoro-3-methylphenyl)methyl)-5-((3-cyclopropyl-2-imino-2,3-dihydro-1H-imidazol-1-yl)methyl)-2′-(difluoromethoxy)-4′-fluoro-[1,1′-biphenyl]-3-carboxamide] | 470 | < 0.1 |  |  | 
Cc1cc([C@@H](NC(=O)c2cc(Cn3ccn(C4CC4)c3=N)cc(-c3cn(C)nc3C(F)(F)F)c2)C2CC2)ccc1F [Example 142, (S)—N-(Cyclopropyl(4-fluoro-3-methylphenyl)methyl)-3-((3-cyclopropyl-2-imino-2,3-dihydro-1H-imidazol-1-yl)methyl)-5-(1-methyl-3-(trifluoromethyl)-1H-pyrazol-4-yl)benzamide] | < 100 | < 0.1 |  |  | 
Cc1cc([C@@H](NC(=O)c2cc(CN3CCOC3=N)cc(-c3ccc(F)cc3C(F)(F)F)c2)C2CC2)ccc1F [Example 285, (S)—N-(Cyclopropyl(4-fluoro-3-methylphenyl)methyl)-4′-fluoro-5-((2-iminooxazolidin-3-yl)methyl)-2′-(trifluoromethyl)-[1,1′-biphenyl]-3-carboxamide] | < 100 | < 0.1 |  |  | 
Cc1cc(CNC(=O)c2cc(Cn3ccn(C)c3=N)cc(-c3cccnc3C)c2)ncn1 [Example 38, 3-((2-Imino-3-methyl-2,3-dihydro-1H-imidazol-1-yl)methyl)-5-(2-methylpyridin-3-yl)-N-((6-methylpyrimidin-4-yl)methyl)benzamide] | 6000 | 3.7 |  |  | 
Cc1cc([C@@H](NC(=O)c2cc(Cn3ccn(C)c3=N)cc(-c3ncccc3C(F)(F)F)c2)C2CC2)ccc1F [Example 64, (S)—N-(Cyclopropyl(4-fluoro-3-methylphenyl)methyl)-3-((2-imino-3-methyl-2,3-dihydro-1H-imidazol-1-yl)methyl)-5-(3-(trifluoromethyl)pyridin-2-yl)benzamide] | 930 | 0.59 |  |  | 
Cc1cc([C@@H](NC(=O)c2cc(Cn3ccoc3=N)cc(-c3cn(C)nc3C(F)(F)F)c2)C2CC2)ccc1F [Example 259, (S)—N-(Cyclopropyl(4-fluoro-3-methylphenyl)methyl)-3-((2-iminooxazol-3(2H)-yl)methyl)-5-(1-methyl-3-(trifluoromethyl)-1H-pyrazol-4-yl)benzamide] | < 100 |  |  | < 0.1 | 
Cn1ccn(Cc2cc(C(=O)NC(CC(=O)O)c3ccc(Cl)c(Cl)c3)cc(-c3ccc(F)cc3C(F)(F)F)c2)c1=N (stereo not drawn) [Example 84, 3-(3,4-Dichlorophenyl)-3-(4′-fluoro-5-((2-imino-3-methyl-2,3-dihydro-1H-imidazol-1-yl)methyl)-2′-(trifluoromethyl)-[1,1′-biphenyl]-3-carboxamido)propanoic acid] | 2100 | 0.12 |  |  | 
N=C1SCCN1Cc1cc(C(=O)N[C@H](c2ccc(Cl)c(Cl)c2)C2CC2)cc(-c2ccc(F)cc2OC(F)F)c1 [Example 309, (S)—N-(Cyclopropyl(3,4-dichlorophenyl)methyl)-2′-(difluoromethoxy)-4′-fluoro-5-((2-iminothiazolidin-3-yl)methyl)-[1,1′-biphenyl]-3-carboxamide] | 960 |  |  | 0.77 | 
Cn1ccn(Cc2cc(C(=O)NC3(c4cccc(Br)c4)CCC3)c(F)c(-c3ccc(F)cc3C(F)(F)F)c2)c1=N [Example 186, N-(1-(3-Bromophenyl)cyclobutyl)-2,4′-difluoro-5-((2-imino-3-methyl-2,3-dihydro-1H-imidazol-1-yl)methyl)-2′-(trifluoromethyl)-[1,1′-biphenyl]-3-carboxamide] | 580 | < 0.1 |  |  | 
CCn1cc(-c2cc(Cn3ccn(C4CC4)c3=N)cc(C(=O)N[C@H](c3ccc(F)c(F)c3)C3CC3)c2)c(C(F)(F)F)n1 [Example 190, (S)—N-(Cyclopropyl(3,4-difluorophenyl)methyl)-3-((3-cyclopropyl-2-imino-2,3-dihydro-1H-imidazol-1-yl)methyl)-5-(1-ethyl-3-(trifluoromethyl)-1H-pyrazol-4-yl)benzamide] | 190 | 0.11 |  |  | 
COc1cc(CNC(=O)c2cc(Cn3ccn(C4CC4)c3=N)cc(-c3ccc(F)cc3C)c2)cc(OC)c1 [Example 117, 5-((3-Cyclopropyl-2-imino-2,3-dihydro-1H-imidazol-1-yl)methyl)-N-(3,5-dimethoxybenzyl)-4′-fluoro-2′-methyl-[1,1′-biphenyl]-3-carboxamide] | 310 | 0.15 |  |  | 
COc1cc([C@@H](NC(=O)c2cc(CN3CCOC3=N)cc(-c3cccnc3C(F)(F)F)c2)C2CC2)ccc1F [Example 305, (S)—N-(Cyclopropyl(4-fluoro-3-methoxyphenyl)methyl)-3-((2-iminooxazolidin-3-yl)methyl)-5-(2-(trifluoromethyl)pyridin-3-yl)benzamide] | < 100 | < 0.1 |  |  | 
Cc1ccc2[nH]ncc2c1-c1cc(Cn2ccn(C)c2=N)cc(C(=O)NCc2ccc(Cl)c(Cl)c2)c1 [Example 27, N-(3,4-Dichlorobenzyl)-3-((2-imino-3-methyl-2,3-dihydro-1H-imidazol-1-yl)methyl)-5-(5-methyl-1H-indazol-4-yl)benzamide] | 3100 | 1.5 |  |  | 
Cc1cc([C@@H](NC(=O)c2cc(Cn3cccc(F)c3=N)cc(-c3cccnc3C(F)(F)F)c2)C2CC2)ccc1F [Example 350, (S)—N-(Cyclopropyl(4-fluoro-3-methylphenyl)methyl)-3-((3-fluoro-2-iminopyridin-1(2H)-yl)methyl)-5-(2-(trifluoromethyl)pyridin-3-yl)benzamide] | 140 | 0.12 |  |  | 
Cc1ncccc1-c1cc(Cn2ccn(C)c2=N)cc(C(=O)NCc2ncc(Cl)cn2)c1 [Example 44, N-((5-Chloropyrimidin-2-yl)methyl)-3-((2-imino-3-methyl-2,3-dihydro-1H-imidazol-1-yl)methyl)-5-(2-methylpyridin-3-yl)benzamide] | 22000 | 9.2 |  |  | 
CCOc1c(C(=O)N[C@H](c2ccc(F)c(C)c2)C2CC2)cc(Cn2cc(F)ccc2=N)cc1-c1cn(C)nc1C(F)(F)F [Example 349, (S)—N-(Cyclopropyl(4-fluoro-3-methylphenyl)methyl)-2-ethoxy-5-((5-fluoro-2-iminopyridin-1(2H)-yl)methyl)-3-(1-methyl-3-(trifluoromethyl)-1H-pyrazol-4-yl)benzamide] |  |  |  | < 0.1 | < 100
CCn1cc(-c2cc(Cn3ccn(C4CC4)c3=N)cc(C(=O)N[C@H](c3ccc(Cl)c(Cl)c3)C3CC3)c2)c(C(F)(F)F)n1 [Example 162, (S)—N-(Cyclopropyl(3,4-dichlorophenyl)methyl)-3-((3-cyclopropyl-2-imino-2,3-dihydro-1H-imidazol-1-yl)methyl)-5-(1-ethyl-3-(trifluoromethyl)-1H-pyrazol-4-yl)benzamide] | 130 | < 0.1 |  |  | 
COc1cc(CNC(=O)c2cc(Cn3ccn(C)c3=N)cc(-c3c(C)cc(F)cc3C)c2)cc(OC)c1 [Example 65, N-(3,5-dimethoxybenzyl)-4′-fluoro-5-((2-imino-3-methyl-2,3-dihydro-1H-imidazol-1-yl)methyl)-2′,6′-dimethyl-[1,1′-biphenyl]-3-carboxamide] | 300 | 0.63 |  |  | 
